“Also recorded” adds a separate entry of the source. Where no end group is shown, it is not given here.
Tests used:
[1] = molecular target: T1, refolded pepsin (Rp) (Sus scrofa, UniProt P00791); experiment: PS binding to Rp (Trp-fluorescence); set-up: species or system porcine; conditions: for Kd: 0.6-1.2 µM Rp, 20 mM acetic acid/NaOH pH 5.3 without added NaCl, ≥10 min, Trp-fluorescence ex 295 nm, em 315 nm, mean ± SD from non-linear curve fitting, 3-5 measurements, read-out: K d (PS-Rp dissociation constant); for Kd / ΔΔGPS-Rp (change in PS-Rp binding energy upon mutation): 20°C; for ΔΔGPS-Rp (change in PS-Rp binding energy upon mutation): from K d, pH 5.3, relative to WT, ± SD by propagation of errors; for effect on affinity for Rp / PS-Rp stability (in words): pH 5.3, 20°C, compared with PSwt
T1 construct: Only the R13 and K36 side-chains of the PS form hydrogen bonds with the mature pepsin domain; purchased Sigma (St. Louis, MO, USA)
T1 sequence (P00791 60-385): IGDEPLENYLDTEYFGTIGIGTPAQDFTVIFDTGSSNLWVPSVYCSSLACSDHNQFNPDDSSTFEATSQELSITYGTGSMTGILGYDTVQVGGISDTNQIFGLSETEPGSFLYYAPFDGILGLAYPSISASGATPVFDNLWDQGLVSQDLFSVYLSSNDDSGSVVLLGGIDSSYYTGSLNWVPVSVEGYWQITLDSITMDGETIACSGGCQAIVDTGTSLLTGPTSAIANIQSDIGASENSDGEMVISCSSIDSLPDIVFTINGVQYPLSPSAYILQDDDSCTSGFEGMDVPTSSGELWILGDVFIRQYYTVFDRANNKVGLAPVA
Procedure: The change in intrinsic tryptophan fluorescence of pepsin was used to measure the binding of PS to Rp and to determine the dissociation constant, K d. Rp solutions were diluted to between 0.6 and 1.2 µM in 20 mM acetic acid/NaOH buffer, pH 5.3, and mixed with various amounts of PS. After incubating the samples at 20°C for ≥10 minutes, the intrinsic tryptophan fluorescence was measured using a PTI spectrofluorophotometer (Photon Technology International, Inc., Birmingham NJ, USA), with excitation at 295 nm and emission measured at 315 nm. The change in fluorescence, ΔF i, at each PS concentration, [PS], was normalized relative to the maximum change, ΔF max, and fit according to [drawing 1] (1) where [Rp] is the total concentration of pepsin.
PS binding to Rp was measured in buffer without added 100 mM NaCl in order to obtain more accurate measurements of K d, owing to a larger change in signal in the absence of salt. Additionally, without added 100 mM NaCl it was possible to isolate the PS-Rp binding step from the catalyzed folding step thereby improving the determination of K d.
(§1) The change in stability of the folding transition state upon mutation was calculated using [drawing 3] (3) where k f, wt and k f, mut are the PS-catalyzed folding rate constants of the wild-type and mutant PS peptides. The change in equilibrium stability of PS-Np relative to PS-Rp upon mutation of the PS (ΔΔGPS(Np-Rp)) was determined as the difference between the changes in binding energies, using [drawing 4] (4) and [drawing 5] (5)
(§2) Here, ΔΔGbind refers to either ΔΔGPS-Rp, determined from K d values, or ΔΔGPS-Np, determined from K i values. The Φ-value for each mutant corresponds to eq 3 divided by eq 5. Additional details are included in the supporting information section (Text S1).

[2] = molecular target: T1, refolded pepsin (Rp); experiment: PS-catalyzed folding of Rp to Np (recovery of Np activity); format: biochemical, porcine; conditions: for k f (PS-catalyzed folding rate constant): 1 µM Rp, 30 µM PS, pH 5.3 (20 mM acetic acid/NaOH, 100 mM NaCl), Np activity assayed at pH 1.2, 25°C with KPAEFF(NO2)AL, monoexponential fit, mean ± SD from non-linear curve fitting, 3-5 measurements; for k f (PS-catalyzed folding rate constant) / ΔΔG^‡ (change in folding activation energy upon mutation): 15°C; for ΔΔG^‡ (change in folding activation energy upon mutation): from k f, pH 5.3, relative to WT, ± SD by propagation of errors
Procedure: PS-catalyzed folding of Rp to Np
PS-catalyzed folding was carried out by combining 1 µM Rp and 30 µM PS, in a volume of 100 µl, at pH 5.3 (20 mM acetic acid/NaOH with 100 mM NaCl) and 15°C. Aliquots were taken at several time intervals, diluted 20-fold in 50 mM phosphoric acid buffer, pH 1.2, incubated for 5 min at 25°C and assayed for Np activity using the KPAEFF(NO2)AL substrate. The recovery of Np activity with time, t, was fit with a monoexponential function (y = a – bexp(–k f t)) to obtain the PS-catalyzed folding rate constant, k f. Under these conditions, PS binding to Rp reached equilibrium within the dead-time of mixing (<8 sec), as judged by Trp-fluorescence.
as §1
Temperature dependence of PS-catalyzed folding
PS-catalyzed folding could be measured only up to 15 °C for PSwt, as the reaction was too fast at higher temperatures. […] Given the linear temperature dependence it could be reasonably assumed that changes in activation energies (mutant – wild-type) would be unchanged from 15 °C to 20 °C, and so could be compared directly with changes in binding energies (wild-type – mutant) that were determined at 20 °C.

[3] = molecular target: T2, native pepsin (Np) (Sus scrofa, UniProt P00791); experiment: PS binding to Np (competitive inhibition of KPAEFF(NO2)AL hydrolysis); format: biochemical, porcine; conditions: for Ki: 10 nM Np, 20 mM acetic acid/NaOH pH 5.3, 100 mM NaCl, 5 min incubation, substrate KPAEFF(NO2)AL 0.1 mM, absorbance 300 nm, competitive model, mean ± SD from non-linear curve fitting, 3-5 measurements, read-out: K i (PS-Np inhibition constant); for Ki / ΔΔGPS-Np (change in PS-Np binding energy upon mutation): 20°C; for ΔΔGPS-Np (change in PS-Np binding energy upon mutation): from K i, pH 5.3, relative to WT, ± SD by propagation of errors; for effect on affinity for Np / PS-Np stability (in words): pH 5.3, 20°C, PS inhibition of Np, compared with PSwt
T2 construct: Only the R13 and K36 side-chains of the PS form hydrogen bonds with the mature pepsin domain; purchased Sigma (St. Louis, MO, USA)
T2 sequence (P00791 60-385): as above
Procedure: PS binding to Np was determined by using the PS as a competitive inhibitor and measuring the inhibition constant, K i. Hydrolysis of the KPAEFF(NO2)AL substrate was measured by following the decrease in absorbance at 300 nm using a Biochrom Ultrospec 3100pro UV-Vis spectrophotometer (Biochrom Ltd., Cambridge, England) in 20 mM acetic acid/NaOH buffer, pH 5.3, containing 100 mM NaCl. Np samples were diluted to 10 nM and incubated with PS for 5 min at 20°C and assayed for activity. The reaction rates were normalized to the activity in the absence of PS and the data fit using the competitive inhibitor form of the Michaelis-Menten equation [drawing 2] (2) where v0 is the initial reaction rate, V max is the maximum reaction rate, [S] is the substrate concentration (fixed at 0.1 mM), [I] is the inhibitor concentration, and K M is the Michaelis constant.
as §1, §2

In the case of “LVKAPLVRKKSLRQNLIKNGKLKDFLKTHKHNPASKYFPEAAAL [V4A]”, the Kd [1] is reported as 1190 ± 230 nM, the “ΔΔGPS-Rp (change in PS-Rp binding energy upon mutation)” value [1] is reported as 0.79 ± 0.12 kcal/mol and the “effect on affinity for Rp / PS-Rp stability (in words)” value [1] is reported as “relatively large destabilizing effect on PS-Rp”. For the same sequence, the “k f (PS-catalyzed folding rate constant)” value [2] was 0.27 ± 0.03 min⁻¹, the “ΔΔG^‡ (change in folding activation energy upon mutation)” value [2] was 0.94 ± 0.15 kcal/mol and the Ki [3] was 50.9 ± 6.9 nM. The “ΔΔGPS-Np (change in PS-Np binding energy upon mutation)” value [3] was -0.14 ± 0.13 kcal/mol and the “effect on affinity for Np / PS-Np stability (in words)” value [3] was “very small stabilizing effect on PS-Np; also recorded: stabilizing to the native state”.

In the case of “LVKVPLVRKKSLRQNLAKNGKLKDFLKTHKHNPASKYFPEAAAL [I17A]”, the Kd [1] is reported as 210 ± 90 nM, the “ΔΔGPS-Rp (change in PS-Rp binding energy upon mutation)” value [1] is reported as -0.21 ± 0.24 kcal/mol and the “effect on affinity for Rp / PS-Rp stability (in words)” value [1] is reported as “negligible effect on PS-Rp binding; also recorded: negligible effect on PS-Rp and PS-TS stability”. The “k f (PS-catalyzed folding rate constant)” value [2] was 1.40 ± 0.26 min⁻¹, the “ΔΔG^‡ (change in folding activation energy upon mutation)” value [2] was 0.01 ± 0.18 kcal/mol and the “effect on rate of PS-catalyzed folding (in words)” value ([2]; pH 5.3, 15°C, compared with PSwt) was “no effect”. For the same sequence, the Ki [3] was 394 ± 65.1 nM, the “ΔΔGPS-Np (change in PS-Np binding energy upon mutation)” value [3] was 1.05 ± 0.14 kcal/mol and the “effect on affinity for Np / PS-Np stability (in words)” value [3] was “largest reduction in affinities for Np; also recorded: one of the most destabilizing mutations to the PS-Np complex”.

In the case of “LVKVPLVRKKSLRQNLIKNGKLKDFLKTHKHNPASKYFPEAAAL [WT]”, the Kd [1] is reported as 310 ± 30 nM, the “k f (PS-catalyzed folding rate constant)” value [2] is reported as 1.42 ± 0.34 min⁻¹ and the Ki [3] is reported as 64.8 ± 11.4 nM.
